Measurements reported in ChEMBL document CHEMBL1147406, “Polar substitutions in the benzenesulfonamide ring of celecoxib afford a potent 1,5-diarylpyrazole class of COX-2 inhibitors” (Bioorg Med Chem Lett, 2004).
pIC50: −log10 of the molar value.

Legend:
[1] = molecular target: T1, Prostaglandin G/H synthase 2 (Homo sapiens, UniProt P35354); assay: Inhibitory activity against human Prostaglandin G/H synthase 2 expressed in sf-9 cells infected with baculovirus; format: cell-based, Sf9
T1 sequence (P35354 whole entry): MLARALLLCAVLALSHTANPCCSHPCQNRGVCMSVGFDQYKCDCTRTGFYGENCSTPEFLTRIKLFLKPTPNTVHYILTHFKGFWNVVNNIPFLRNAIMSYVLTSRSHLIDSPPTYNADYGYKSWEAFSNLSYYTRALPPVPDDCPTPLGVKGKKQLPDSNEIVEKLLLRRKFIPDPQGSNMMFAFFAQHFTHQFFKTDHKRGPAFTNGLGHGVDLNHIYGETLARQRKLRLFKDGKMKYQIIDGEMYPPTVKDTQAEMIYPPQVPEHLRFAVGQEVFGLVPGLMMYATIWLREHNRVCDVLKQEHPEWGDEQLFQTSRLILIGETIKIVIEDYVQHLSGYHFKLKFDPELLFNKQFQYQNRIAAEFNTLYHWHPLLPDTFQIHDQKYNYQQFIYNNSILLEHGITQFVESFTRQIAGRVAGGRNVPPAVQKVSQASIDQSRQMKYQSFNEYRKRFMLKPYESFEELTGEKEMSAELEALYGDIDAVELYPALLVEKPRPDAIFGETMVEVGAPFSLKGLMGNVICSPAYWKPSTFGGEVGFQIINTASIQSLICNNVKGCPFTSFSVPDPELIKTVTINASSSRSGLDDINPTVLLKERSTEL

[2] = molecular target: T2, Prostaglandin G/H synthase 1 (Ovis aries, UniProt P05979)
T2 sequence (P05979 whole entry): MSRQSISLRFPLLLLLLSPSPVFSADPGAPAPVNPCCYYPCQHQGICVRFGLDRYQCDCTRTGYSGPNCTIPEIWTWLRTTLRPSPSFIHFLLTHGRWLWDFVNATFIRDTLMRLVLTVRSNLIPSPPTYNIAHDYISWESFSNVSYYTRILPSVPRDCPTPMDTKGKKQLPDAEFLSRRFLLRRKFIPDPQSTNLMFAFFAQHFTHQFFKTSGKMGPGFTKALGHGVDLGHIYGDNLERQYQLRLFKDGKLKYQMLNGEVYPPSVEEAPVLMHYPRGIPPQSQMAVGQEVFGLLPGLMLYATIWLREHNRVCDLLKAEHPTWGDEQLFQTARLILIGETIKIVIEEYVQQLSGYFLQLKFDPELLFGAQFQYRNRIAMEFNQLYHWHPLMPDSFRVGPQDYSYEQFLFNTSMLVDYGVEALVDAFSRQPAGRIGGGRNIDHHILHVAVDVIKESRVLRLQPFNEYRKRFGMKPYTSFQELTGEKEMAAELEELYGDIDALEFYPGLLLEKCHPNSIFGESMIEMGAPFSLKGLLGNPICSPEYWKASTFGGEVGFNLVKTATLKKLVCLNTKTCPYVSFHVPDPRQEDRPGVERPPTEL

[3] = molecular target: T3, Prostaglandin G/H synthase 2 (Homo sapiens) (UniProt P35354); assay: Inhibitory activity of compound against human cyclooxygenase-2 expressed in sf-9 cells infected with baculovirus at 10 uM concentration; details: Sf9
T3 sequence (whole entry): T1 sequence (P35354 whole entry)

[4] = molecular target: T4, Prostaglandin G/H synthase 1 (Ovis aries) (UniProt P05979); assay: Inhibitory activity of compound against prostaglandin G/H synthase 1 from ram seminal vesicles at 10 uM concentration
T4 sequence (whole entry): T2 sequence (P05979 whole entry)

[5] = molecular target: T3, Prostaglandin G/H synthase 2 (Homo sapiens); assay: Inhibitory activity of compound against human Prostaglandin G/H synthase 2 expressed in sf-9 cells infected with baculovirus at 100 uM concentration; details: Sf9
[6] = molecular target: T4, Prostaglandin G/H synthase 1 (Ovis aries); assay: Inhibitory activity against prostaglandin G/H synthase 1 from ram seminal vesicles at 100 uM concentration
[7] = molecular target: T4, Prostaglandin G/H synthase 1 (Ovis aries); assay: Inhibitory activity of compound against Prostaglandin G/H synthase 1 from ram seminal vesicles at 10 uM concentration

| Structure (SMILES) | pIC50 [1] | pIC50 [2] | other results |
| --- | --- | --- | --- |
| COc1ccc(-c2cc(C(F)(F)F)nn2-c2ccc(S(N)(=O)=O)c(CO)c2)cc1 | 6.44 | 4.20 | – |
| NS(=O)(=O)c1ccc(-n2nc(C(F)(F)F)cc2-c2ccc(O)cc2)cc1CO | – | – | inhibition [3]: 19%; inhibition [4]: 0% |
| COc1ccc(-c2cc(C(F)(F)F)nn2-c2ccc3c(c2)CCS3(=O)=O)cc1 | – | – | inhibition [5]: 36%; inhibition [6]: 86% |
| CC(C)Cc1ccc(-c2cc(C(F)(F)F)nn2-c2ccc(S(N)(=O)=O)c(CO)c2)cc1 | – | – | inhibition [5]: 14%; inhibition [6]: 4% |
| CCSc1ccc(-c2cc(C(F)(F)F)nn2-c2ccc(S(N)(=O)=O)c(CO)c2)cc1 | 4.29 | 3.52 | – |
| NS(=O)(=O)c1ccc(-n2nc(C(F)(F)F)cc2-c2cccc(Cl)c2)cc1CO | 5.71 | 3.33 | – |
| CCOC(=O)OCc1cc(-n2nc(C(F)(F)F)cc2-c2ccc(C)cc2)ccc1S(C)(=O)=O | – | – | inhibition [3]: 0%; inhibition [7]: 9% |
| NS(=O)(=O)c1ccc(-n2nc(C(F)(F)F)cc2-c2ccccc2F)cc1CO | 5.48 | 3.30 | – |
| CCC(=O)OCc1cc(-n2nc(C(F)(F)F)cc2-c2ccc(C)cc2)ccc1S(N)(=O)=O | 6.24 | 4.46 | – |
| COc1ccccc1-c1cc(C(F)(F)F)nn1-c1ccc(S(N)(=O)=O)c(CO)c1 | 4.54 | 2.94 | – |
| NS(=O)(=O)c1ccc(-n2nc(C(F)(F)F)cc2-c2ccccc2)cc1CO | 5.46 | 2.96 | – |
| COc1ccc(-c2cc(C(F)(F)F)nn2-c2ccc(S(C)(=O)=O)c(C=O)c2)cc1 | – | – | inhibition [5]: 100%; inhibition [3]: 44%; inhibition [6]: 92% |
| Cc1ccc(-c2cc(C(F)(F)F)nn2-c2ccc(S(N)(=O)=O)c(CO)c2)cc1 | 6.12 | 3.56 | – |
| Cc1ccc(-c2cc(C(F)(F)F)nn2-c2ccc3c(c2)CCS3(=O)=O)cc1 | – | – | inhibition [5]: 10%; inhibition [6]: 90% |
| CSc1ccc(-c2cc(C(F)(F)F)nn2-c2ccc(S(N)(=O)=O)c(CO)c2)cc1 | 6.63 | 4.22 | – |
| CCc1ccc(-c2cc(C(F)(F)F)nn2-c2ccc(S(N)(=O)=O)c(CO)c2)cc1 | 5.86 | 3.30 | – |

| Structure (SMILES) | pIC50 [1] | pIC50 [2] | other results |
| --- | --- | --- | --- |
| NS(=O)(=O)c1ccc(-n2nc(C(F)(F)F)cc2-c2ccc(F)cc2)cc1CO | 5.70 | 3.30 | – |
| NS(=O)(=O)c1ccc(-n2nc(C(F)(F)F)cc2-c2ccc(Cl)cc2)cc1CO | 6.15 | 3.47 | – |
| CS(=O)(=O)c1ccc(-c2cc(C(F)(F)F)nn2-c2ccc(S(N)(=O)=O)c(CO)c2)cc1 | – | – | inhibition [5]: 29%; inhibition [6]: 68% |
| NS(=O)(=O)c1ccc(-n2nc(C(F)(F)F)cc2-c2ccc(Br)cc2)cc1CO | 6.23 | 3.64 | – |
| CSc1ccc(-c2cc(C(F)(F)F)nn2-c2ccc(S(C)(=O)=O)c(CO)c2)cc1 | – | – | inhibition [5]: 45%; inhibition [6]: 0% |
| COc1ccc(-c2cc(C(F)(F)F)nn2-c2ccc(S(N)(=O)=O)c(CNC(C)=O)c2)cc1 | 5.55 | 4.00 | – |
| COc1ccc(-c2cc(C(F)(F)F)nn2-c2ccc(S(C)(=O)=O)c(CO)c2)cc1 | 5.49 | 3.52 | – |
| CC(=O)NCc1cc(-n2nc(C(F)(F)F)cc2-c2ccc(Cl)cc2)ccc1S(N)(=O)=O | 5.30 | 4.00 | – |
| NS(=O)(=O)c1ccc(-n2nc(C(F)(F)F)cc2-c2cccc(F)c2)cc1CO | 5.15 | 3.00 | – |
| Cc1cccc(-c2cc(C(F)(F)F)nn2-c2ccc(S(N)(=O)=O)c(CO)c2)c1 | 6.14 | 3.49 | – |
| CSc1ccc(-c2cc(C(F)(F)F)nn2-c2ccc(S(N)(=O)=O)c(C(C)O)c2)cc1 (stereo not given) | – | – | inhibition [5]: 50%; inhibition [6]: 6% |
| COc1ccc(-c2cc(C(F)(F)F)nn2-c2ccc3c(c2)CNS3(=O)=O)cc1 | – | – | inhibition [5]: 12%; inhibition [6]: 85% |
| CCOc1ccc(-c2cc(C(F)(F)F)nn2-c2ccc(S(N)(=O)=O)c(CO)c2)cc1 | 6.05 | 3.87 | – |
| COc1ccc(-c2cc(C(F)(F)F)nn2-c2ccc3c(c2)COS3(=O)=O)cc1 | – | – | inhibition [5]: 36%; inhibition [6]: 92% |
| NS(=O)(=O)c1ccc(-n2nc(C(F)(F)F)cc2-c2ccccc2Cl)cc1CO | 5.20 | 3.29 | – |
| CC(=O)NCc1cc(-n2nc(C(F)(F)F)cc2-c2ccc(C)cc2)ccc1S(N)(=O)=O | 5.16 | 5.34 | – |
